Key:
[1] = compared with FDA approved camptothecin analogs (e.g., Camptosar and Hycamtin); cited from earlier work
[2] = Lactone/carboxylate equilibrium in aqueous solution at physiological pH; format: physicochemical; conditions: physiological pH (7.4)
[3] = Lactone/carboxylate form and lactone half-life in plasma; format: in vitro ADME, rat

## CC[C@@]1(O)C(=O)OCc2c1cc1n(c2=O)Cc2c-1nc1ccc(O)cc1c2[Si](C)(C)C(C)(C)C [DB-67, 7-t-butyldimethylsilyl-10-hydroxycamptothecin]
[1]
  Potency in in vitro cytotoxicity assays: at least comparable potency

## CC[C@@]1(O)C(=O)OCc2c1cc1n(c2=O)Cc2cc3ccccc3nc2-1 [camptothecin]
[2]
  Fraction in the carboxylate form: approximately 70%
[3]; in plasma
  Fraction in lactone (active) form: ~30%
[3]; rat plasma
  half-life: ~40 min

Reference: patent US8067432B2, “Liposomal, ring-opened camptothecins with prolonged, site-specific delivery of active drug to solid tumors” (University of Kentucky Research Foundation, priority 2008, dated 2011)
